Test results reported in paper PMC8066730, “Alteration of Anticancer and Protein-Binding Properties of Gold(I) Alkynyl by Phenolic Schiff Bases Moieties” (Pharmaceutics, 2021).

Tests used:
[1] = system: HOP-62 (non-small-cell lung cancer cell line); assay: SRB cytotoxicity assay, HOP-62; assay type: cell-based, human; settings: 3 days incubation, DMSO solutions
Description: (§1) The cells were obtained by the Egyptian Holding Company for Biological Products and Vaccines (VACSERA) and then maintained in the tissue culture unit. Cells were grown in RPMI-1640 medium, supplemented with 10% heat inactivated FBS, 50 units/mL of penicillin, and […] of streptomycin, and maintained in a humidified atmosphere with 5% carbon dioxide. The cells were kept as monolayer cultures by serial sub-culturing, using cell culture reagents from Lonza (Basel, Switzerland). The antitumor activities of the complexes were assessed against OVCAR-3 (ovarian carcinoma cancer) and HOP-62 (non-small-cell lung cancer) cell lines.
(§2) The sulforhodamine B (SRB) assay method was applied to determine the cytotoxicity, as described in the literature. Exponentially growing cells were collected using 0.25% Trypsin-EDTA and seeded in 96-well plates at 1000–2000 cells/well in RBMI-1640 supplemented medium. The cells were kept in the medium for 24 h and then incubated for 3 days with various concentrations of the gold compounds. Following 3 days of treatment, the cells were fixed with 10% Cl3CCOOH for 60 min at 4 °C. Wells were stained for 10 min at room temperature with 0.4% SRBC dissolved in 1% CH3COOH. The plates were air dried for 24 h, and the dye was dissolved in Tris-HCl for 5 min with shaking at 1600 rpm. The optical density of each well was evaluated spectrophotometrically at 564 nm with an ELISA microplate reader (ChroMate-4300, Orlando, FL, USA). The half […] inhibitory concentration (IC50) values were calculated from a Boltzmann sigmoidal concentration response curve using nonlinear regression fitting models (Graph Pad, Prism Version 9, San Diego, CA, USA).

[2] = system: OVCAR-3 (ovarian carcinoma cancer cell line); assay: SRB cytotoxicity assay, OVCAR-3; assay type: cell-based; settings: for IC50: 3 days incubation, SRB, DMSO solutions
Description: as §1, §2

[3] = target: human serum albumin (HSA) (Homo sapiens, UniProt P02768); assay: HSA fluorescence quenching binding study; set-up: Kq (quenching rate constant): unit not given here; settings: for n (number of binding sites) / Ksv (Stern–Volmer quenching constant) / Kq (quenching rate constant) / ∆G^0 (Gibbs free energy of binding to HSA): 295 K; for Ksv (Stern–Volmer quenching constant): HSA 32 µM, Tris-HCl/NaCl buffer pH 7.4, ca. 20% DMSO; for Kq (quenching rate constant): Ksv = Kq × τ0, τ0 = 7 ns; for ∆G^0 (Gibbs free energy of binding to HSA): calculated from Kb; for fold increase in HSA binding affinity on introducing the o-phenolic moiety: proceeding from 1 to 3 and 2 to 5; for fold enhancement in HSA binding affinity on replacing triphenylphosphine with tricyclohexylphosphine: proceeding from 1 to 2 and 3 to 5
Sequence of human serum albumin (HSA) (P02768 25-609): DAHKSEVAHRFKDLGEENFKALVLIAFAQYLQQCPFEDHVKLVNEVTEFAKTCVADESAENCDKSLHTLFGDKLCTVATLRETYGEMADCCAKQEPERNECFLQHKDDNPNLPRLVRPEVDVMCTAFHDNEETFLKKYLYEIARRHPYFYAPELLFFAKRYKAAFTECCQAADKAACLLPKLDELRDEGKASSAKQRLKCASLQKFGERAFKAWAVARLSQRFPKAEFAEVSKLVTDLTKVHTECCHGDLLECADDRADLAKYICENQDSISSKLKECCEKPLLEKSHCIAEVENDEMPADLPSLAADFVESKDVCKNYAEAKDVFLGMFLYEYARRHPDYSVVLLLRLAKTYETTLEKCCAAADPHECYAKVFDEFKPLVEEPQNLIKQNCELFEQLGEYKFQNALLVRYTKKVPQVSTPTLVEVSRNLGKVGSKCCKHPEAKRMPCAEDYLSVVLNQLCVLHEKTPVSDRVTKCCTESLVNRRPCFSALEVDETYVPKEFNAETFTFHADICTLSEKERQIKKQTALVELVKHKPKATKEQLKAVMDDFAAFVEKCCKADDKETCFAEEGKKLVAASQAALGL
Description: Human serum albumin (HSA) solution (32 µM) was prepared in Tris-HCl/NaCl aqueous buffer (pH = 7.4). The solution was titrated with different concentrations of complexes 1–5 in DMSO (the amount of DMSO was maintained at ca. 20% v/v). The changes in the emission intensity of the protein were followed at around 330 nm upon excitation at 275 nm after incubating the complexes for 4 min at 295 K. The Stern–Volmer quenching constants (KSV) were obtained from Equation (1), where Io and I are the emission intensities of the protein in the absence and the presence of the complexes, respectively. The […]; the KSV value was defined as the slope of the line. The Stern–Volmer constant is related to the quenching constant by Equation (2), where Kq is the quenching rate constant, and τ0 is the average lifetime of the fluorescence for free HSA (τ0 = 7 ns). The binding constant (Kb, M^−1) and the number of binding sites (n) were calculated by plotting log[Io − I/I] against Log [Au complex], where the slope equals n and the intercept is equivalent to Log Kb according to Equation (3). Gibbs free energy (∆G^0) of the binding to HSA protein can be calculated by employing Equation (4), using the binding constant (Kb, M^−1). I0/I = 1 + Ksv [Au complex](1) Ksv = Kq × τ0(2) Log(I0 − I)/I = Log Kb + n Log [Au complex](3) ∆G^0 = −R × T × Ln × Kb(4)

| Compound | n (number of binding sites) [3] | Ksv (Stern–Volmer quenching constant) [3] | Kq (quenching rate constant) [3] | ∆G^0 (Gibbs free energy of binding to HSA) [3] [kJ/mol] | fold increase in HSA binding affinity on introducing the o-phenolic moiety [3] [fold] | fold enhancement in HSA binding affinity on replacing triphenylphosphine with tricyclohexylphosphine [3] [fold] | IC50 [1] [µM] | IC50 [2] [µM] | cytotoxic activity against OVCAR-3 in words ([2]; compared with cisplatin) | HSA binding constant relative to complex 3 (2-hydroxy) ([3]; ratio of Kb, complex 4 vs complex 3) [times] |
| --- | --- | --- | --- | --- | --- | --- | --- | --- | --- | --- |
| Au(C≡C-C6H4-4-CHO)(PPh3) [Compound 1] | 0.82 | 4.7 ×10^4 | 6.71 ×10^12 | -21.2 |  |  | 12.5 ± 0.43 | 13.7 ± 0.53 |  |  |
| N.N.[Cl][Pt][Cl] [cisplatin, reference compound] |  |  |  |  |  |  | 3.91 ± 0.2 | 5.89 ± 0.12 |  |  |
| Oc1ccc(N=Cc2ccc(C#[C][Au][PH](c3ccccc3)(c3ccccc3)c3ccccc3)cc2)cc1 [Compound 4, HO–4–C6H4–N=C–4-C6H4-C≡C–Au-PPh3] | 1.61 | 71.5 ×10^4 | 102.21 ×10^12 | -51.8 |  |  | 8.16 ± 0.43 | 5.27 ± 0.11 | comparable to that of cisplatin | 6400 |

Second part, led by results:

| n (number of binding sites) [3] | Ksv (Stern–Volmer quenching constant) [3] | Kq (quenching rate constant) [3] | ∆G^0 (Gibbs free energy of binding to HSA) [3] [kJ/mol] | fold increase in HSA binding affinity on introducing the o-phenolic moiety [3] [fold] | fold enhancement in HSA binding affinity on replacing triphenylphosphine with tricyclohexylphosphine [3] [fold] | Compound | IC50 [1] [µM] | IC50 [2] [µM] | cytotoxic activity against OVCAR-3 in words ([2]; compared with cisplatin) | HSA binding constant relative to complex 3 (2-hydroxy) ([3]; ratio of Kb, complex 4 vs complex 3) [times] |
| --- | --- | --- | --- | --- | --- | --- | --- | --- | --- | --- |
| 0.96 | 38.9 ×10^4 | 55.57 ×10^12 | -30.29 | 40 |  | HO–2–C6H4–N=C–4-C6H4-C≡C–Au-PPh3 [Compound 3] | 7.25 ± 0.21 | 9.4 ± 0.17 |  |  |
| 1.37 | 37.1 ×10^4 | 52.96 ×10^12 | -42.95 | 240 | 170 | HO–2–C6H4–N=C–4-C6H4-C≡C–Au-PCy3 [Compound 5] | 7.55 ± 0.43 | 9.11 ± 0.12 |  |  |
| 1.16 | 2.8 ×10^4 | 4.00 ×10^12 | -29.9 |  | 30 | OHC-4-C6H4-C≡C-Au-PCy3 [Compound 2] | 14.82 ± 0.13 | 15.9 ± 0.53 |  |  |
